Measurements reported in paper PMC11116414, “Impact of secretin receptor homo-dimerization on natural ligand binding” (Nature Communications, 2024).
No end group written: not given here.

System: cysteine-containing SecR(G264A,I268A) constructs
Test: Cysteine trapping with SecR(G264A,I268A) cysteine constructs, intact COS-1 cells
Type: binding, human
Conditions: for Intraloop labeling / Overall labeling: mean ± S.E.M.; for cysteine trapping in ECL3, in words: WT (earlier work) and non-dimerizing SecR
Protocol: In short, 15 µg of each peptide were incubated with 1 mCi of Na^125I for 15 s in borate buffer (pH 9.0) using solid-state N-chlorobenzene sulfonamide (iodination beads), and radioactive peptide products were separated and purified using reversed-phase HPLC, to yield a mono-iodinated peak with a specific radioactivity of 2000 Ci/mmol.
Modified secretin receptor constructs were prepared by mutagenesis of human SecR(G264A,I268A) by introducing cysteine residues to replace each natural residue in the N-terminal stalk region, (extracellular loop 1) ECL1, ECL2, and ECL3 regions of the receptor[21]. Mutagenesis was performed using the QuikChange site-directed mutagenesis kit from Stratagene (La Jolla, CA), with the products verified by direct DNA sequencing.
Cysteine trapping is a technique in which cysteine residues incorporated into distinct positions within a peptide ligand and within its receptor are allowed to form disulfide bonds when two free cysteines are in proximity to each other with necessary distance and geometry. As noted above, this was performed with secretin peptides incorporating cysteines in positions 2, 5, 6 and 7[20],[21], and with a series of SecR mutants incorporating cysteines in all extracellular domains (75 distinct constructs in a TM4 mutant non-dimerizing SecR background). COS-1 cells were grown to approximate 85% confluence in 24-well tissue culture plates, and transfected with cysteine mutant receptor constructs using the PEI method. Assays were started by washing the cells with DMEM containing 5% Fetal Clone II before being incubated with 200 μl radiolabeled cysteine-containing probes (approximately 100,000 cpm per well) for 1.5 h at room temperature. The assays were terminated by washing the cells with ice-cold PBS, pH 7.4, and mixing with 60 µl SDS Laemmli sample buffer not containing dithiothreitol (DTT). Lysates were run on 10% SDS-polyacrylamide gels. Gels were then dried, and bands of interest were visualized by autoradiography, and specific bands were identified, and intensities quantified using ImageJ. Sites having labeling above background were determined using one-way ANOVA with Dunnett’s post-test, with P < 0.001 considered to be significant. The apparent molecular weights of the receptor bands were determined by interpolation with the mobility of the appropriate ProSieve protein markers.

[1] = A292C, ECL2, n = 3-5, Cys5 significant (P < 0.0001)
[2] = F279C, ECL2, % of highest-labeled residue across all constructs, n = 4 (Cys2), 5 (Cys5, Cys6), 3 (Cys7)
[3] = L374C, ECL3, n = 3-5, Cys5, Cys6, Cys7 significant (P < 0.001)
[4] = M366C, ECL3, n = 3-5, Cys5 significant (P < 0.0001)
[5] = W296C, ECL2, n = 3-5, Cys6 significant (P = 0.0003)

## Cys^6-[Tyr^10]secretin(1-27) (HSDGTCTSEYSRLREGARLQRLLQGLV; not fully specified; ends and bridges not checked; also: radioiodinated; UniProt P09683 28-54, looked up, variant F6C L10Y) [Cys^6-Sec, cysteine-containing secretin agonist probe, radioiodinated for cysteine trapping]
A292C, ECL2, n = 3-5
  Intraloop labeling: 29.1 ±17.0 percentage
[1]
  Overall labeling: 24.9±17.2 percentage
D282C, ECL2, n = 3-5
  Intraloop labeling: < 1 percentage
  Overall labeling: < 1 percentage
D364C, ECL3, n = 3-5
  Intraloop labeling: 17.1±8.2 percentage
D364C, ECL3, n = 3-5, Cys5 significant (P < 0.0001)
  Overall labeling: 16.2±8.4 percentage
E367C, ECL3, n = 3-5
  Intraloop labeling: 40.8±17.2 percentage
  Overall labeling: 35.5±14.9 percentage
E373C, ECL3, n = 3-5
  Intraloop labeling: 19.9±17.3 percentage
  Overall labeling: 13.9±11.4 percentage
[2]
  Overall labeling: < 1 percentage
F358C, ECL3, n = 3-5
  Intraloop labeling: 16.4±12.8 percentage
  Overall labeling: 10.2±6.9 percentage
F371C, ECL3, n = 3-5
  Intraloop labeling: 11.4±11.0 percentage
F372C, ECL3, n = 3-5
  Intraloop labeling: 19.0±15.7 percentage
  Overall labeling: 13.6±10.3 percentage
G284C, ECL2, n = 3-5
  Overall labeling: < 1 percentage
I294C, ECL2, n = 3-5
  Intraloop labeling: 10.5±9.5 percentage
  Overall labeling: 10.3±9.5 percentage
I297C, ECL2, n = 3-5
  Intraloop labeling: 30.1±18.4 percentage
L374C, ECL3, n = 3-5
  Intraloop labeling: 94.8±5.2 percentage
[3]
  Overall labeling: 78.8±9.2 percentage
M366C, ECL3, n = 3-5
  Intraloop labeling: 56.2±16.4 percentage
[4]
  Overall labeling: 48.0±17.7 percentage
N289C, ECL2, n = 3-5
  Intraloop labeling: 15.8±14.5 percentage
  Overall labeling: 15.7±14.5 percentage
N291C, ECL2, n = 3-5
  Intraloop labeling: < 1 percentage
  Overall labeling: < 1 percentage
Q369C, ECL3, n = 3-5
  Intraloop labeling: 13.0±12.7 percentage
V283C, ECL2, n = 3-5
  Intraloop labeling: 15.8±13.9 percentage
  Overall labeling: 15.5±13.9 percentage
W286C, ECL2, n = 3-5
  Intraloop labeling: 24.4±19.3 percentage
  Overall labeling: 13.4±8.9 percentage
W295C, ECL2, n = 3-5
  Intraloop labeling: 34.2±0.1 percentage
W295C, ECL2, n = 3-5, Cys2, Cys5, Cys7 significant (P < 0.0001)
  Overall labeling: 34.1±17.2 percentage
W296C, ECL2, n = 3-5
  Intraloop labeling: 80.2±19.8 percentage
[5]
  Overall labeling: 68.0±20.5 percentage
  cysteine trapping in ECL3, in words: labeled ECL3 residues

## Cys^7-[Tyr^10]secretin(1-27) (HSDGTFCSEYSRLREGARLQRLLQGLV; not fully specified; ends and bridges not checked; also: radioiodinated; UniProt P09683 28-54, looked up, variant T7C L10Y) [Cys^7-Sec, cysteine-containing secretin agonist probe, radioiodinated for cysteine trapping]
A290C, ECL2, n = 3-5
  Intraloop labeling: < 1 percentage
  Overall labeling: < 1 percentage
A292C, ECL2, n = 3-5
  Intraloop labeling: < 1 percentage
[1]
  Overall labeling: < 1 percentage
A359C, ECL3, n = 3-5
  Intraloop labeling: 85.3±8.6 percentage
A359C, ECL3, n = 3-5, Cys7 significant (P = 0.0004)
  Overall labeling: 85.3±8.6 percentage
A365C, ECL3, n = 3-5
  Intraloop labeling: 66.4±17.1 percentage
A365C, ECL3, n = 3-5, Cys5 significant (P < 0.0001)
  Overall labeling: 66.4±17.1 percentage
D282C, ECL2, n = 3-5
  Intraloop labeling: < 1 percentage
  Overall labeling: < 1 percentage
D287C, ECL2, n = 3-5
  Intraloop labeling: 15.7±15.6 percentage
E363C, ECL3, n = 3-5
  Intraloop labeling: < 1 percentage
  Overall labeling: < 1 percentage
E367C, ECL3, n = 3-5
  Intraloop labeling: < 1 percentage
  Overall labeling: < 1 percentage
E373C, ECL3, n = 3-5
  Intraloop labeling: < 1 percentage
  Overall labeling: < 1 percentage
F279C, ECL2, % of highest labeling within loop, n = 4 (Cys2), 5 (Cys5, Cys6), 3 (Cys7)
  Intraloop labeling: < 1 percentage
[2]
  Overall labeling: < 1 percentage
F358C, ECL3, n = 3-5
  Intraloop labeling: 21.6±20.7 percentage
  Overall labeling: 21.6±20.7 percentage
F360C, ECL3, n = 3-5
  Intraloop labeling: 23.9±23.4 percentage
  Overall labeling: 23.9±23.4 percentage
F372C, ECL3, n = 3-5
  Intraloop labeling: 24.8±24.7 percentage
  Overall labeling: 24.8±24.7 percentage
G284C, ECL2, n = 3-5
  Intraloop labeling: < 1 percentage
  Overall labeling: < 1 percentage
I288C, ECL2, n = 3-5
  Intraloop labeling: 82.9±8.6 percentage
I288C, ECL2, n = 3-5, Cys5 and Cys7 significant (P < 0.0001)
  Overall labeling: 71.4±10.6 percentage
I294C, ECL2, n = 3-5
  Intraloop labeling: < 1 percentage
  Overall labeling: < 1 percentage
I297C, ECL2, n = 3-5
  Intraloop labeling: < 1 percentage
  Overall labeling: < 1 percentage
I368C, ECL3, n = 3-5
  Intraloop labeling: < 1 percentage
  Overall labeling: < 1 percentage
L280C, ECL2, n = 3-5
  Intraloop labeling: < 1 percentage
  Overall labeling: < 1 percentage
L374C, ECL3, n = 3-5
  Intraloop labeling: 88.6±11.4 percentage
[3]
  Overall labeling: 88.6±11.4 percentage
M366C, ECL3, n = 3-5
  Intraloop labeling: 55.6±22.3 percentage
[4]
  Overall labeling: 55.6±22.3 percentage
N291C, ECL2, n = 3-5
  Intraloop labeling: < 1 percentage
  Overall labeling: < 1 percentage
P362C, ECL3, n = 3-5
  Intraloop labeling: < 1 percentage
  Overall labeling: < 1 percentage
Q369C, ECL3, n = 3-5
  Intraloop labeling: < 1 percentage
  Overall labeling: < 1 percentage
S293C, ECL2, n = 3-5
  Intraloop labeling: < 1 percentage
  Overall labeling: < 1 percentage
S361C, ECL3, n = 3-5
  Intraloop labeling: < 1 percentage
  Overall labeling: < 1 percentage
V283C, ECL2, n = 3-5
  Intraloop labeling: < 1 percentage
  Overall labeling: < 1 percentage
W286C, ECL2, n = 3-5
  Overall labeling: < 1 percentage
W295C, ECL2, n = 3-5
  Intraloop labeling: 92.5±7.5 percentage
W296C, ECL2, n = 3-5
  Intraloop labeling: < 1 percentage
[5]
  Overall labeling: < 1 percentage
  cysteine trapping in ECL3, in words: labeled ECL3 residues
